Experimental data as given in ChEMBL document CHEMBL4477259, “Discovery and structure-activity relationships of a novel isothiazolone class of bacterial type II topoisomerase inhibitors” (Bioorg Med Chem Lett, 2016).
Converted amounts (≈) assume the structure as drawn.

Legend:
Acinetobacter baumannii = assay: Antibacterial activity against Acinetobacter baumannii NCTC 13420; format: functional
Klebsiella pneumoniae = assay: Antibacterial activity against Klebsiella pneumoniae ATCC 700603; format: functional
Pseudomonas aeruginosa = assay: Antibacterial activity against Pseudomonas aeruginosa ATCC 27853; format: functional
Staphylococcus aureus = assay: Antibacterial activity against Staphylococcus aureus ATCC 29213; format: functional
Escherichia coli [1] = assay: Antibacterial activity against Escherichia coli W4573; format: functional
Escherichia coli [2] = assay: Antibacterial activity against Escherichia coli N43; format: functional
Escherichia coli [3] = assay: Antibacterial activity against wild type Escherichia coli LM179; format: functional
Escherichia coli [4] = assay: Antibacterial activity against Escherichia coli LM625 harboring GyrA S83L/D87N double mutant; format: functional
Escherichia coli [5] = assay: Antibacterial activity against Escherichia coli LM367 harboring delta marR/delta acrR double mutant; format: functional
Escherichia coli [6] = assay: Antibacterial activity against Escherichia coli LM693 harboring GyrA S83L/D87N double mutant/ParC S80I mutant; format: functional
Escherichia coli [7] = assay: Antibacterial activity against Escherichia coli LM705 harboring GyrA S83L/D87N double mutant/ParC S80I mutant/delta marR/delta acrR double mutant; format: functional
Escherichia coli [8] = assay: Antibacterial activity against Escherichia coli CH440 harboring GyrA S83L/D87N double mutant/ParC S80I E84V double mutant/aac(6')-lb-cr; format: functional
Escherichia coli [9] = assay: Antibacterial activity against Escherichia coli CH460 harboring GyrA S83L/D87N double mutant/ParC S80I E84V double mutant/qepA; format: functional
Escherichia coli [10] = assay: Antibacterial activity against Escherichia coli CH418 harboring GyrA S83L/D87N double mutant/ParC S80I E84G double mutant/qnrA; format: functional
Escherichia coli [11] = assay: Antibacterial activity against Escherichia coli CH448 harboring GyrA S83L mutant/qnrS; format: functional
Escherichia coli [12] = assay: Selectivity ratio of MIC for Escherichia coli LM625 harboring GyrA S83L/D87N double mutant to MIC for wild type Escherichia coli LM179; format: functional
Escherichia coli [13] = assay: Selectivity ratio of MIC for Escherichia coli LM367 harboring delta marR/delta acrR double mutant to MIC for wild type Escherichia coli LM179; format: functional
Escherichia coli [14] = assay: Selectivity ratio of MIC for Escherichia coli LM693 harboring GyrA S83L/D87N double mutant/ParC S80I mutant to MIC for wild type Escherichia coli LM179; format: functional
Escherichia coli [15] = assay: Selectivity ratio of MIC for Escherichia coli LM705 harboring GyrA S83L/D87N double mutant/ParC S80I mutant/delta marR/delta acrR double mutant to MIC for wild type Escherichia coli LM179; format: functional
Escherichia coli [16] = assay: Selectivity ratio of MIC for Escherichia coli CH440 harboring GyrA S83L/D87N double mutant/ParC S80I E84V double mutant/aac(6')-lb-cr to MIC for wild type Escherichia coli LM179; format: functional
Escherichia coli [17] = assay: Selectivity ratio of MIC for Escherichia coli CH460 harboring GyrA S83L/D87N double mutant/ParC S80I E84V double mutant/qepA to MIC for wild type Escherichia coli LM179; format: functional
Escherichia coli [18] = assay: Selectivity ratio of MIC for Escherichia coli CH418 harboring GyrA S83L/D87N double mutant/ParC S80I E84G double mutant/qnrA to MIC for wild type Escherichia coli LM179; format: functional
Escherichia coli [19] = assay: Selectivity ratio of MIC for Escherichia coli CH448 harboring GyrA S83L mutant/qnrS to MIC for wild type Escherichia coli LM179; format: functional
HepG2 = assay: Cytotoxicity against human HepG2 cells after 24 hrs by cell titre-glo assay; format: cell-based; conditions: HepG2, 24 h
[20] = n-octanol/phosphate buffer partition coefficient, log D of compound at pH 7.4 by shake-flask assay; format: physicochemical
hERG (KCNH2) = hERG (KCNH2) (Homo sapiens, UniProt Q12809); assay: Inhibition of human ERG channel at 100 uM by automated patch clamp assay
[21] = molecular target: Voltage-gated inwardly rectifying potassium channel KCNH2 (Homo sapiens, UniProt Q12809); assay: Inhibition of human ERG channel by automated patch clamp assay
Voltage-gated inwardly rectifying potassium channel KCNH2, sequence (Q12809 whole entry): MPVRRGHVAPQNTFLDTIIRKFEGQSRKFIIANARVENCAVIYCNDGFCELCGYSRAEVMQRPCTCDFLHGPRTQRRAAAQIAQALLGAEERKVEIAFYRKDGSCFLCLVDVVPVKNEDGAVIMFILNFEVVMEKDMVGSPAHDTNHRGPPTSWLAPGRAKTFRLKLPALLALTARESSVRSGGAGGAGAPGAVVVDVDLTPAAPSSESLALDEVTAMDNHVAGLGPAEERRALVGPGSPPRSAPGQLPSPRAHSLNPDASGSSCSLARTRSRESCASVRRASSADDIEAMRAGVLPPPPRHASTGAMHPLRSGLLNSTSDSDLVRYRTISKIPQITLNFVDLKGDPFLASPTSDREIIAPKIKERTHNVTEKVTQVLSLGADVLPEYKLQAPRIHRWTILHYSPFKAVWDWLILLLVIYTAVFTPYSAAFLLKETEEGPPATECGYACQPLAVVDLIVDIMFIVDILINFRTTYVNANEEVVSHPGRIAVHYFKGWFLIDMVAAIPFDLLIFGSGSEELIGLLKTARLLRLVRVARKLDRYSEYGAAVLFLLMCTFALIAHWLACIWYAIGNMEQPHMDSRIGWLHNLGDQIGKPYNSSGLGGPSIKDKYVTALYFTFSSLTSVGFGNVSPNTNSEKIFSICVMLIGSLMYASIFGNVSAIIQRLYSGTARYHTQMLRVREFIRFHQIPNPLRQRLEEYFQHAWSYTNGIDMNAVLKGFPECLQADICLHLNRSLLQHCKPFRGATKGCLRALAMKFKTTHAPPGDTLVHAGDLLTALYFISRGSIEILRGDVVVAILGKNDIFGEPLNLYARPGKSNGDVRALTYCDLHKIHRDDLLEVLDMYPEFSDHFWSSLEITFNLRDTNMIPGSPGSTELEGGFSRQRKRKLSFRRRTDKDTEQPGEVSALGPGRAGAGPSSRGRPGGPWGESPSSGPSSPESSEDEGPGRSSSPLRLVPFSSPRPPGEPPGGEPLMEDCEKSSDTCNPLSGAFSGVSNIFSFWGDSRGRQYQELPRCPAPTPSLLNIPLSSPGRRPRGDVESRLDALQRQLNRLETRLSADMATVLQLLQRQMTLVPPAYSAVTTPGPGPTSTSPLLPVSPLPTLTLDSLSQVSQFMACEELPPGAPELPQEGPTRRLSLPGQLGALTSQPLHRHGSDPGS

hERG (KCNH2), sequence (Q12809 whole entry): as above

For `CCc1c(-c2ccc(N3CCC(CNC)C3)cc2)[nH]c(=O)c2c(=O)[nH]sc12` (centres undefined), the MIC (Acinetobacter baumannii) was greater than 128 µg/mL, the MIC (Klebsiella pneumoniae) was 32 µg/mL (≈ 83.2 µM) and the MIC (Pseudomonas aeruginosa) was 2 µg/mL (≈ 5.2 µM). For the same molecule, the MIC (Staphylococcus aureus) was 2 µg/mL (≈ 5.2 µM), the MIC (Escherichia coli [1]) was 1 µg/mL (≈ 2.6 µM) and the MIC (Escherichia coli [2]) was 0.008 µg/mL (≈ 0.0208 µM).

In the case of `CCc1c(-c2ccc(N3C[C@@H]4CCCN[C@@H]4C3)cc2)[nH]c(=O)c2c(=O)[nH]sc12`, the MIC (Acinetobacter baumannii) is reported as 8 µg/mL (≈ 20.2 µM), the MIC (Klebsiella pneumoniae) is reported as 4 µg/mL (≈ 10.1 µM) and the MIC (Pseudomonas aeruginosa) is reported as 1 µg/mL (≈ 2.52 µM). For the same molecule, the MIC (Staphylococcus aureus) was 1 µg/mL (≈ 2.52 µM), the MIC (Escherichia coli [1]) was 0.5 µg/mL (≈ 1.26 µM) and the MIC (Escherichia coli [2]) was 0.008 µg/mL (≈ 0.0202 µM).

`CCc1c(-c2cccc(N3CCC(CNC)C3)c2)[nH]c(=O)c2c(=O)[nH]sc12` (centres undefined) gave an MIC (Acinetobacter baumannii) greater than 64 µg/mL, an MIC (Klebsiella pneumoniae) greater than 64 µg/mL and an MIC (Pseudomonas aeruginosa) greater than 64 µg/mL. The MIC (Staphylococcus aureus) was 64 µg/mL (≈ 166 µM), the MIC (Escherichia coli [1]) was greater than 64 µg/mL and the MIC (Escherichia coli [2]) was 8 µg/mL (≈ 20.8 µM).

In the case of `CCc1c(-c2ccc(N3C[C@@H]4CCCN(C)[C@@H]4C3)cc2)[nH]c(=O)c2c(=O)[nH]sc12`, the MIC (Escherichia coli [3]) is reported as 4 µg/mL (≈ 9.74 µM), the MIC (Escherichia coli [4]) is reported as 16 µg/mL (≈ 39 µM) and the MIC (Acinetobacter baumannii) is reported as 64 µg/mL (≈ 156 µM). The MIC (Klebsiella pneumoniae) was 64 µg/mL (≈ 156 µM), the MIC (Pseudomonas aeruginosa) was 32 µg/mL (≈ 77.9 µM) and the MIC (Staphylococcus aureus) was 4 µg/mL (≈ 9.74 µM). The MIC (Escherichia coli [1]) was 4 µg/mL (≈ 9.74 µM), the MIC (Escherichia coli [2]) was 1 µg/mL (≈ 2.44 µM) and the MIC (Escherichia coli [5]) was 16 µg/mL (≈ 39 µM). The MIC (Escherichia coli [6]) was greater than 64 µg/mL, the MIC (Escherichia coli [7]) was greater than 64 µg/mL and the MIC (Escherichia coli [8]) was greater than 64 µg/mL. The MIC (Escherichia coli [9]) was 64 µg/mL (≈ 156 µM), the MIC (Escherichia coli [10]) was 64 µg/mL (≈ 156 µM) and the MIC (Escherichia coli [11]) was 32 µg/mL (≈ 77.9 µM). For the same molecule, the Selectivity ratio (Escherichia coli [12]) was 4, the Selectivity ratio (Escherichia coli [13]) was 4 and the Selectivity ratio (Escherichia coli [14]) was greater than 16. The Selectivity ratio (Escherichia coli [15]) was greater than 16, the Selectivity ratio (Escherichia coli [16]) was greater than 16 and the Selectivity ratio (Escherichia coli [17]) was 16. For the same molecule, the Selectivity ratio (Escherichia coli [18]) was 16 and the Selectivity ratio (Escherichia coli [19]) was 8.

In the case of `CCc1c(-c2ccc(N3CCNCC3)cc2)[nH]c(=O)c2c(=O)[nH]sc12`, the MIC (Acinetobacter baumannii) is reported as greater than 64 µg/mL, the MIC (Klebsiella pneumoniae) is reported as 64 µg/mL (≈ 180 µM) and the MIC (Pseudomonas aeruginosa) is reported as 16 µg/mL (≈ 44.9 µM). It also gave an MIC (Staphylococcus aureus) of 8 µg/mL (≈ 22.4 µM), an MIC (Escherichia coli [1]) of 4 µg/mL (≈ 11.2 µM) and an MIC (Escherichia coli [2]) of 0.5 µg/mL (≈ 1.4 µM).

For `CCc1c(-c2ccc(N3C[C@@H]4CCN(C)[C@@H]4C3)cc2)[nH]c(=O)c2c(=O)[nH]sc12`, the MIC (Acinetobacter baumannii) was 8 µg/mL (≈ 20.2 µM), the MIC (Klebsiella pneumoniae) was 8 µg/mL (≈ 20.2 µM) and the MIC (Pseudomonas aeruginosa) was 8 µg/mL (≈ 20.2 µM). For the same molecule, the MIC (Staphylococcus aureus) was 4 µg/mL (≈ 10.1 µM), the MIC (Escherichia coli [1]) was 0.5 µg/mL (≈ 1.26 µM) and the MIC (Escherichia coli [2]) was 0.06 µg/mL (≈ 0.151 µM).

`CCc1c(-c2ccc(N3CC[C@@H](N(C)C)C3)cc2)[nH]c(=O)c2c(=O)[nH]sc12` showed an MIC (Acinetobacter baumannii) of 4 µg/mL (≈ 10.4 µM), an MIC (Klebsiella pneumoniae) of 8 µg/mL (≈ 20.8 µM) and an MIC (Pseudomonas aeruginosa) of 1 µg/mL (≈ 2.6 µM). It also gave an MIC (Staphylococcus aureus) of 2 µg/mL (≈ 5.2 µM), an MIC (Escherichia coli [1]) of 0.5 µg/mL (≈ 1.3 µM) and an MIC (Escherichia coli [2]) of 0.03 µg/mL (≈ 0.078 µM).

Molecule `CCc1c(-c2ccc(N3CC[C@@H](O)C3)cc2)[nH]c(=O)c2c(=O)[nH]sc12` has an MIC (Acinetobacter baumannii) of 16 µg/mL (≈ 44.8 µM), an MIC (Klebsiella pneumoniae) of 2 µg/mL (≈ 5.6 µM) and an MIC (Pseudomonas aeruginosa) of 1 µg/mL (≈ 2.8 µM). For the same molecule, the MIC (Staphylococcus aureus) was 0.015 µg/mL (≈ 0.042 µM), the MIC (Escherichia coli [1]) was 0.12 µg/mL (≈ 0.336 µM) and the MIC (Escherichia coli [2]) was 0.008 µg/mL (≈ 0.0224 µM).

`CCc1c(-c2ccc(N3CC[C@H](O)C3)cc2)[nH]c(=O)c2c(=O)[nH]sc12` showed an MIC (Acinetobacter baumannii) of 32 µg/mL (≈ 89.5 µM), an MIC (Klebsiella pneumoniae) of 4 µg/mL (≈ 11.2 µM) and an MIC (Pseudomonas aeruginosa) of 0.5 µg/mL (≈ 1.4 µM). The MIC (Staphylococcus aureus) was 0.12 µg/mL (≈ 0.336 µM), the MIC (Escherichia coli [1]) was 0.25 µg/mL (≈ 0.699 µM) and the MIC (Escherichia coli [2]) was 0.03 µg/mL (≈ 0.0839 µM). The IC50 (HepG2) was greater than 16 µg/mL, the logD [20] was 1.5 and the inhibition at 100 µM (hERG (KCNH2)) was 22%.

With `CCc1c(-c2ccc(N3CCC(N(C)C)C3)cc2)[nH]c(=O)c2c(=O)[nH]sc12` (racemic) the MIC (Escherichia coli [3]) was 0.5 µg/mL (≈ 1.3 µM), the MIC (Escherichia coli [4]) was 4 µg/mL (≈ 10.4 µM) and the MIC (Acinetobacter baumannii) was 2 µg/mL (≈ 5.2 µM). It also gave an MIC (Klebsiella pneumoniae) of 4 µg/mL (≈ 10.4 µM), an MIC (Pseudomonas aeruginosa) of 1 µg/mL (≈ 2.6 µM) and an MIC (Staphylococcus aureus) of 1 µg/mL (≈ 2.6 µM). The MIC (Escherichia coli [1]) was 0.25 µg/mL (≈ 0.65 µM), the MIC (Escherichia coli [2]) was 0.03 µg/mL (≈ 0.078 µM) and the IC50 (HepG2) was greater than 128 µg/mL. The logD [20] was 1.4, the inhibition at 100 µM (hERG (KCNH2)) was 84% and the IC50 [21] was 20 µM. For the same molecule, the MIC (Escherichia coli [5]) was 2 µg/mL (≈ 5.2 µM), the MIC (Escherichia coli [6]) was 8 µg/mL (≈ 20.8 µM) and the MIC (Escherichia coli [7]) was 64 µg/mL (≈ 166 µM). The MIC (Escherichia coli [8]) was 16 µg/mL (≈ 41.6 µM), the MIC (Escherichia coli [9]) was 16 µg/mL (≈ 41.6 µM) and the MIC (Escherichia coli [10]) was 16 µg/mL (≈ 41.6 µM). The MIC (Escherichia coli [11]) was 16 µg/mL (≈ 41.6 µM), the Selectivity ratio (Escherichia coli [12]) was 8 and the Selectivity ratio (Escherichia coli [13]) was 4. The Selectivity ratio (Escherichia coli [14]) was 16, the Selectivity ratio (Escherichia coli [15]) was 128 and the Selectivity ratio (Escherichia coli [16]) was 32. The Selectivity ratio (Escherichia coli [17]) was 32, the Selectivity ratio (Escherichia coli [18]) was 32 and the Selectivity ratio (Escherichia coli [19]) was 32.

For `O=C(O)c1cn(C2CC2)c2cc(N3CCNCC3)c(F)cc2c1=O` [CIPROFLOXACIN], the MIC (Klebsiella pneumoniae) was 0.25 µg/mL (≈ 0.754 µM), the MIC (Pseudomonas aeruginosa) was 1 µg/mL (≈ 3.02 µM) and the MIC (Staphylococcus aureus) was 0.25 µg/mL (≈ 0.754 µM). It also gave an IC50 (HepG2) greater than 128 µg/mL, an MIC (Escherichia coli [7]) of 64 µg/mL (≈ 193 µM) and an MIC (Escherichia coli [8]) greater than 64 µg/mL. It also gave an MIC (Escherichia coli [9]) greater than 64 µg/mL and an MIC (Escherichia coli [10]) of 64 µg/mL (≈ 193 µM).
